The results in this text go back to the RepoRT retention time repository (doi:10.1093/pcp/pcn183).

Structures can show the parent of a compound that is named as a salt.

A short description of this data set: RP, Waters ACQUITY UPLC BEH C18, 38 °C, 0.24 mL/min; A: water + 0.1% formic acid, pH 3; B: acetonitrile + 0.1% formic acid, pH 3; gradient (min/%B) 0/0 0.25/0 0.4/9 0.8/17 1.9/100 2.1/100 2.11/0 3/0. To be noted: stereoisomer not certain.
Take `O=P(O)(O)OCC(O)CO` (racemic) [rac-Glycerol 3-phosphoate disodium salt hexahydrate]: the LC retention time amounted to 0.16 min.
Consider `O=C(O)CCc1ccc(O)cc1` [3-(4-Hydroxyphenyl)-propionic acid], for which the LC retention time was found to be 1.38 min.
Regarding `O=C(O)C1CCCCN1` (racemic) [DL-Pipecolinic acid], the LC retention time turned out to be 0.27 min.
Then `O=C(O)C(=O)Cc1ccccc1` [Sodium phenylpyruvate], with 1.36 min; and `O=C1c2c(O)cc(O)cc2OC(c2ccc(O)c(O)c2)C1O` (racemic) [(+-)-Taxifolin], with 1.45 min; and `COc1cc(C=CCO)cc(OC)c1O` [Sinapyl alcohol], with 2.13 min.
On to `O=c1[nH]c(=O)c2cn[nH]c2[nH]1` [Oxypurinol], for which the LC retention time is 0.7 min.
With `CNCC(=O)O` [Sarcosine], the LC retention time came out at 0.16 min.
Take `NC(=O)c1ncn(C2OC(COP(=O)(O)O)C(O)C2O)c1N` (configuration not stated): the LC retention time turned out to be 0.32 min.
Consider `CCCCCCCCCCCC(=O)OCC(O)COP(=O)([O-])OCC[N+](C)(C)C` (configuration not stated) [Phosphocholine,1-Lauroyl-2-Hydroxy-sn-Glycero-3-], for which the LC retention time came to 1.79 min.
Then `COc1cc(CC(=O)O)ccc1O` [Homovanillic acid], with 1.33 min.
Take `NCC(O)c1ccc(O)c(O)c1` (single isomer, unassigned; (-)) [(-)-Norepinephrine]: the LC retention time stood at 0.19 min.
Turning to `O=C(C=Cc1ccc(O)cc1)OCC1OC(Oc2c(-c3ccc(O)cc3)oc3cc(O)cc(O)c3c2=O)C(O)C(O)C1O` (configuration not stated) [Tiliroside], the LC retention time stood at 1.57 min.
For `O=C(O)Cc1cc(O)ccc1O` [Homogentisic acid], the LC retention time was found to be 1.1 min.
With `CC1OC(OCC2OC(Oc3c(-c4ccccc4O)oc4cc(O)cc(O)c4c3=O)C(O)C(O)C2O)C(O)C(O)C1O` (configuration not stated) [Datiscin], the LC retention time was 1.4 min.
Turning to `Cn1c(=O)[nH]c2ncn(C)c2c1=O` [1,7-Dimethylxanthine], the LC retention time turned out to be 1.15 min.
In the case of `O=c1ccn(C2OC(CO)C(O)C2O)c(=O)[nH]1` (configuration not stated) [Uridine], the LC retention time came out at 0.66 min.
For the compound `NCC(O)CCC(N)C(=O)O` (racemic) [DL-5-Hydroxylysine  hydrochloride], the LC retention time turned out to be 0.14 min.
Turning to `Nc1nc2c(ncn2C2OC(COP(=O)(O)OP(=O)(O)OC3OC(CO)C(O)C(O)C3O)C(O)C2O)c(=O)[nH]1` [Guanosine-5'-diphosphate-D-mannose sodium salt], the LC retention time was 0.27 min.
With `OCC1OC(OC2(CO)OC(CO)C(O)C2O)C(O)C(O)C1O` (configuration not stated) [Sucrose], the LC retention time was found to be 0.22 min.
With `COc1cc2c(cc1O)C1Cc3ccc(OC)c(O)c3CN1CC2` (configuration not stated) [Scoulerin] the figure was 1.37 min; with `CCCCCCN` [Hexylamine], 1.21 min.
Consider `CC(O)CN` (stereo not drawn) [R-(-)-1-Amino-2-propanol], for which the LC retention time came out at 0.17 min.
Consider `Nc1nc2nc[nH]c2c(=O)[nH]1` [Guanine], for which the LC retention time is 0.32 min.
For the compound `NCCCCCN` [Cadaverine], the LC retention time was determined as 0.14 min.
In the case of `O=P(O)(O)OCC1OC(O)CC1O` (configuration not stated) [2-Deoxyribose-5-phosphate sodium salt], the LC retention time is 0.18 min.
Turning to `COc1cc(CNC(=O)CCCCCCC(C)C)ccc1O` [Dihydrocapsaicin], the LC retention time was 2 min.
For the compound `O=C(O)Cc1ccc(O)c(O)c1` [3,4-dihydroxyphenylacetic acid], the LC retention time is 1.16 min.
Consider `O=C[C@H](O)[C@H](O)COP(=O)(O)O` [D-Erythrose-4-phosphate sodium salt], for which the LC retention time was 0.16 min.
`C[N+](C)(C)[O-]` [Trimethylamine N-oxide dihydrate]: the LC retention time stood at 0.18 min.
Regarding `CC[C@H](C)[C@H](N)CC(=O)O` [L-beta-Homoisoleucine hydrochloride], the LC retention time turned out to be 1.1 min.
Turning to `O=Cc1c[nH]c2ccccc12` [Indole-3-carboxyaldehyde], the LC retention time is 1.51 min.
In the case of `CC(C)[C@H](N)C(=O)O` [L-Valine], the LC retention time came out at 0.25 min.
As to `CCC(C)C(=O)C(=O)O` (racemic) [(+-)-3-Methyl-2-oxovaleric acid sodium salt], the LC retention time stood at 1.21 min.
In the case of `NCC(N)C(=O)O` (racemic) [DL-2,3-Diaminopropionic acid monohydrochloride], the LC retention time was 0.15 min.
With `N[C@@H](Cc1c[nH]c2ccccc12)C(=O)O` [L-Tryptophane] the figure was 1.16 min; with `C=C(CC(=O)O)C(=O)O` [Itaconic acid], 1.09 min; with `OCC1OC(Oc2cc(O)cc3[o+]c(-c4ccc(O)c(O)c4)c(OC4OC(CO)C(O)C(O)C4OC4OCC(O)C(O)C4O)cc23)C(O)C(O)C1O` (configuration not stated), 1.12 min.
On to `COc1cc(C=CC(=O)O)cc(OC)c1O` [Sinapic acid], for which the LC retention time was 1.44 min.
Take `O=C(O)CC(O)C(=O)O` [L-(-)-Malic acid]: the LC retention time stood at 0.23 min.
As to `CCC(C(=O)O)C(=O)O` [Ethylmalonic acid], the LC retention time stood at 1.12 min.
Take `NC(CCC(=O)NC(CS)C(=O)O)C(=O)O` (configuration not stated) [gamma-Glu-Cys]: the LC retention time worked out at 0.55 min.
Turning to `O=C(CCc1ccccc1)c1c(O)cc(O)cc1OC1OC(CO)C(O)C(O)C1O` (configuration not stated) [4-deoxyphloridzin], the LC retention time came to 1.5 min.
Turning to `CC(=O)OCC1OC(Oc2c(-c3ccc(O)c(O)c3)oc3cc(O)cc(O)c3c2=O)C(O)C(O)C1O` (configuration not stated) [Quercetin-3-O-glucose-6''-acetate], the LC retention time came to 1.46 min.
With `CSCC[C@H](N)C(=O)O` [L-Methionine], the LC retention time came out at 0.31 min.
Consider `O=c1cccc[nH]1` [2-Hydroxypyridine], for which the LC retention time turned out to be 0.68 min.
Consider `N=c1nc(N2CCCCC2)cc(N)n1O` [Minoxidil], for which the LC retention time came to 1.32 min.
For the compound `C=CCC(=NOS(=O)(=O)O)SC1OC(CO)C(O)C(O)C1O` (configuration not stated) [sinigrin], the LC retention time was 0.38 min.
In the case of `N[C@H](CO)Cc1cnc[nH]1` [L-Histidinol dihydrochloride], the LC retention time was 0.14 min.
As for `CCCCCCCCCC(=O)OCC(O)COP(=O)([O-])OCC[N+](C)(C)C` (configuration not stated) [Phosphocholine,1-Decanoyl-2-Hydroxy-sn-Glycero-3-], the LC retention time was 1.65 min.
Consider `NCCS(=O)(=O)O` [Taurine], for which the LC retention time is 0.16 min.
With `CC(=O)C(=O)O` [Sodium Pyruvate] the figure was 0.22 min; with `O=C(O)c1ccc(O)cc1` [4-Hydroxybenzoate], 1.25 min; with `NC(=O)NC(CC(=O)O)C(=O)O` (racemic) [Carbamoyl-DL-aspartic Acid], 0.12 min.
With `NCCC(=O)O` [beta-Alanine], the LC retention time came to 0.16 min.
With `O=C(O)CC(C(=O)O)C(O)C(=O)O` (racemic) [DL-Isocitric acid trisodium salt], the LC retention time stood at 0.24 min.
As to `CC(C)(COP(=O)(O)OP(=O)(O)OCC1OC(n2cnc3c(N)ncnc32)C(O)C1O)C(O)C(=O)NCCC(=O)NCCS` (configuration not stated) [3'-Dephosphocoenzyme A], the LC retention time is 1.12 min.
